Measured values from patent US5965539A, “Inhibitors of prenyl transferases” (Univeristy of Pittsburgh, priority 1996, dated 1999).

Assays:
[1] = tested on: Raf-transformed NIH 3T3 cells; conditions: 50 mg/kg once daily
[2] = molecular target: T1, GGTase I (Homo sapiens, UniProt P53609); assay: GGTase I activity assay: transfer of [3H]geranylgeranyl to recombinant H-Ras-CVLL, Daudi 60,000xg supernatant; format: biochemical; conditions: Table 1; read-out: GGTase I IC50
T1 construct: FTase and GGTase I activities from 60,000×g supernatants of human Burkitt lymphoma (Daudi) cells; endogenous in cells; host or cells: human Burkitt lymphoma (Daudi) cells, 60,000xg supernatant (partially purified)
T1 sequence (P53609 whole entry): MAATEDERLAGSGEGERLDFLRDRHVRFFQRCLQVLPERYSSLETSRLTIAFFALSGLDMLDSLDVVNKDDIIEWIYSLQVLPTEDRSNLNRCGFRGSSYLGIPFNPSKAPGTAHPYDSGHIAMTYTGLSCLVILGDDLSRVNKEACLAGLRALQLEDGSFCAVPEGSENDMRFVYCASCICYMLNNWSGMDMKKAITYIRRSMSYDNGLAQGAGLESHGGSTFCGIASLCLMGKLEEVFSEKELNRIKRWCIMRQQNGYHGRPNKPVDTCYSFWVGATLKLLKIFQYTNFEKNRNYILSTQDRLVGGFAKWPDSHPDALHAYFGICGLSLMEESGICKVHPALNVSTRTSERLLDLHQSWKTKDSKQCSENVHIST

[3] = tested on: H-RasGG activation of MAPK; conditions: 5 μM, FIG. 5B
[4] = tested on: Raf-1 kinase; conditions: H-RasF cells
Procedure: Raf-1 kinase was assayed by determining the ability of Raf to transfer phosphate from [γ-^32 P] ATP to a 19-mer peptide containing an autophosphorylation site. Membrane and cytosol fraction isolation and Raf immunoprecipitates were washed three times with cold HEPES buffer and twice with kinase buffer (50 mM Tris, pH 7.5, 150 mM NaCl, 12 mM MnCl2, 1 mM DTT, 0.2% Tween 20. Immune complex kinase assays were performed by incubating immunoprecipitaes from membrane and cytosol fractions in 96 μl of kinase buffer with 20 μCi of [γ-^32 P]ATP (10 mCi/ml, Amersham) and 2 μl of the Raf-1 substrate peptide (1 mg/ml, Promega) for 30 min at 25° C. The sequence of the Raf-1 substrate peptide is [sequence]. The phosphorylation reaction was terminated by spotting 50 μl aliquots of the assay mixture onto Whatman P81 for 40 min in 0.5% orthophosphoric acid and air dried. The amount of ^32 P incorporated was determined by liquid scintillation counting.

[5] = tested on: Ras/Raf complexes; conditions: 5 μM, H-RasF cells
Procedure: Cells were seeded on day 0 in 100 mm dishes in 10 ml Dulbecco's Modified Eagles Medium (GIBCO) supplemented with 10% calf serum (Hyclone) and 1% pen/strep (GIBCO). […] On day 3, cells were collected by centrifugation in ice cold PBS. Cell pellets were then resuspended in ice cold hypotonic buffer (10 mM Tris, pH 7.5, 5 mM MgCl2, 1 mM DTT, 1 mM PMSF) and cells were sonicated to break up cell pellet to promote separation of cytosol and membrane. The cell suspension was then centrifuged at 2,000 rpm for 10 min to clear debris after which the supernatant was loaded in ultrocentrifuge tubes and spun for 30 min at 100,000×g to SW Ti55 Rotor to separate membrane and cytosol fractions. The cytosol and membrane fractions were lysed on ice for 60 min in buffer containing 30 mM HEPES, pH 7.5, 1% TX-100, 10% glycerol, 10 mM NaCl, 5 mM MgCl2, 2 mM Na3 VO4, 25 mM NaF, 1 mM EGTA, 10 μM soybean trypsin inhibitor, 25 μg/ml leupeptin, 10 μg/ml aprotinin, 2 mM PMSF). The lysates were clarified by centrifugation. Equal amounts of cytosol and membrane fractions were immunoprecipitated using 50 μl of a 25% Protein-A Sepharose Cl-4B suspension (Sigma) with 1 μf/ml anti-c-Raf-1 (SC133, Santa Cruz Biotechnology, Santa Cruz, Calif.). The samples were tumbled at 4° C. for 60 min and then washed 5 times in 50 mM HEPES, pH 7.5, 100 mM NaCl, 5 mM MgCl2, 0.1% TX-100, 10% glycerol, 20 mM NaF. […]

[6] = tested on: oncogenic K-Ras4B activation of MAP kinase; assay: Oncogenic K-Ras4B activation of MAP kinase, immunoblot; format: cell-based; conditions: 0-30 μM tested
From the text: (§1) Equal amounts of protein were separated on a 15% SDS-PAGE, transferred to nitrocellulose, and immunoblotted using an anti-MAP kinase antibody (erk2, monoclonal, UB1, Lake Placid, N.Y.). Antibody reactions were visualized using peroxidase-conjugated donkey anti-mouse IgG (Jackson ImmunoResearch Laboratories Inc., West Grove, Pa.) and an enhanced chemiluminescence detection system (ECL, Amersham Corp.)

[7] = tested on: Calu-1 human lung carcinoma; conditions: 50 mg/kg once daily
From the text: Calu-1 (Panel A) and NCI-H810 cells (Panel B) were purchased from ATCC and grown in McCoy's 5A medium in 10% FBS (Fetal Bovine Serum) and RPMI 1640 in 10% FBS, respectively. The cells were harvested, resuspended in PBS and injected s.c. into the right and left flank of 8 week old female nude mice (10^7 cells/flank). Nude mice (Harlan Sprague Dawley, Indianapolis, Ind.) were maintained in accordance with the Institutional Animal Care and Use Committee (IACUC) procedures and guidelines. On day 32 after s.c. implantation of tumors, animals were dosed i.p. with 0.2 ml once daily for 36 days. […] The tumor volumes were determined by measuring the length (l) and the width (w) and calculating the volume (V=(l)×(w)^2 /2). Data are presented as the average volume of eight tumors in each group for each cell line. Statistical significance between control and treated groups were evaluated by using student t test (*P<0.05).
In this model, tumors from two human lung carcinoma cell lines are implanted subcutaneously. One of these (Calu-1) harbors a K-Ras oncogenic mutation and has a deletion of the tumor suppressor gene p53. The other human lung carcinoma ([…]) has no Ras mutations.

[8] = tested on: oncogenic H-Ras activation of MAPK; assay: Oncogenic H-Ras activation of MAP kinase, immunoblot; format: cell-based; conditions: H-RasF cells
From the text: as §1

IC50 [2]: 1600 nM | oncogenic Ras-F induced activation of Raf kinase in the plasma membrane [4]: suppressed this activation | lowest concentration inhibiting K-Ras4B MAP kinase activation [6]: 30 µM | lowest effective concentration, inhibition of oncogenic Ras activation of MAPK [8]: 300 nM
Compound: COC(=O)[C@H](CCSC)NC(=O)c1ccc(NC[C@@H](N)CS)cc1-c1ccccc1 [FTI-277, 4-N-[2(R)-Amino-3-mercaptopropyl]amino-2-phenylbenzoyl methionine methyl ester]
growth of Raf-transformed NIH 3T3 cells [1]: had no effect | block of H-RasGG activation of MAPK [3]: able to block H-RasF but not H-RasGG activation of MAPK | Ras/Raf association in membrane and cytosolic fractions [5]: accumulation of Ras/Raf complexes in the cytosolic but not membrane fractions | tumor growth of Calu-1 [7]: inhibited the growth of Calu-I cells to the same extent
